Results as given in article PMC10269775, “Penicillin-Binding Protein Occupancy Dataset for 18 β-Lactams and 4 β-Lactamase Inhibitors in Neisseria gonorrhoeae” (Microbiology Spectrum, 2023).
≈ marks a conversion by molar mass, not a printed value. Read-outs that look alike come from different tables or passages of the source.

Assays:
[1] = tested on: N. gonorrhoeae ATCC 19424; test: MIC, CLSI broth microdilution; format: cell-based; conditions: Neisseria gonorrhoeae, ATCC19424, strain ATCC 19424
PBP1 [2] = target: T1, PBP1 (Neisseria gonorrhoeae, UniProt O05131); test: PBP-binding assay (Bocillin FL) in isolated membrane preparations; conditions: strain ATCC 19424; membrane preparation, 30 min drug then Bocillin FL; read-out: IC50 PBP1 (converted)
T1 construct: endogenous in cells; host or cells: N. gonorrhoeae ATCC 19424, isolated membrane preparation
Excerpt: (§1) Bacterial membranes were collected by ultracentrifugation.

[3] = tested on: N. gonorrhoeae ATCC 49226; test: MIC, CLSI broth microdilution; format: cell-based, Neisseria gonorrhoeae; conditions: for MIC: Neisseria gonorrhoeae, ATCC49226, strain ATCC 49226; for MIC increase for strain ATCC 49226: ATCC 49226 versus ATCC 19424
PBP2 [4] = target: T2, PBP2 (Neisseria gonorrhoeae, UniProt P08149, A510V/A516G/A574V/F504L/H541N/I556V/I566V/K555Q/P552V); test: biochemical; format: binding, Neisseria gonorrhoeae ATCC 49226
T2 construct: endogenous in cells; host or cells: N. gonorrhoeae ATCC 49226, isolated membrane preparation

PBP1 [5] = target: T3, PBP1 (Neisseria gonorrhoeae, UniProt O05131, A375T/F666S); test: PBP-binding assay (Bocillin FL) in isolated membrane preparations; design: species or system Neisseria gonorrhoeae ATCC 49226
T3 construct: endogenous in cells; host or cells: N. gonorrhoeae ATCC 49226, isolated membrane preparation
Excerpt: as §1

PBP2 [6] = target: T4, PBP2 (Neisseria gonorrhoeae, UniProt P08149, H541N); test: as above; design: species or system Neisseria gonorrhoeae ATCC 19424; conditions: IC50 PBP2, strain ATCC 19424; membrane preparation, 30 min drug then Bocillin FL
T4 construct: endogenous in cells; host or cells: N. gonorrhoeae ATCC 19424, isolated membrane preparation

PBP1, PBP2 and PBP3 [7] = target: PBP1, PBP2 and PBP3 (Neisseria gonorrhoeae, UniProt P08149, H541N); format: binding, Neisseria gonorrhoeae ATCC 19424; conditions: read-out: min. IC50 (minimum observed IC50 value); strain ATCC 19424
PBP3 [8] = target: T5, PBP3 (Neisseria gonorrhoeae, UniProt Q5FAB9); conditions: read-out: IC50 PBP3; strain ATCC 19424; membrane preparation, 30 min drug then Bocillin FL
T5 sequence (Q5FAB9 22-469): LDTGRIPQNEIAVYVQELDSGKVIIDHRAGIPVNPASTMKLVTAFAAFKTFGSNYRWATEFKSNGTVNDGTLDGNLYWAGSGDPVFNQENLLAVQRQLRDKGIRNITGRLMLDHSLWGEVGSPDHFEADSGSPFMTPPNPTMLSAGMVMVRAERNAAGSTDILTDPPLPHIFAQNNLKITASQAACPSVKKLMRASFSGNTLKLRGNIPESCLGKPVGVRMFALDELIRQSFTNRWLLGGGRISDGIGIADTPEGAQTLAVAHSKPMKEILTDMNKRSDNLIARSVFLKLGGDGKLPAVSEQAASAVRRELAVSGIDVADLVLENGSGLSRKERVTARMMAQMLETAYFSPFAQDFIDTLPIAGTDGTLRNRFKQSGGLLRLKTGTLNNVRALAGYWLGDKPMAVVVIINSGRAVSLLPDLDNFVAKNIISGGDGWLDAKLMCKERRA

PBP3 [9] = target: T5, PBP3; conditions: read-out: IC50 PBP3; strain ATCC 49226; membrane preparation, 30 min drug then Bocillin FL
PBP2 [10] = target: PBP2 (Neisseria gonorrhoeae, UniProt P08149); conditions: read-out: IC50 for PBP2; across both strains ATCC 19424 and ATCC 49226
PBP1, PBP2 and PBP3 [11] = target: PBP1, PBP2 and PBP3 (Neisseria gonorrhoeae, UniProt P08149, A510V/A516G/A574V/F504L/H541N/I556V/I566V/K555Q/P552V); format: binding, Neisseria gonorrhoeae ATCC 49226; conditions: read-out: min. IC50 (minimum observed IC50 value); strain ATCC 49226
[12] = tested on: N. gonorrhoeae ATCC 19424 and ATCC 49226; test: MIC, summary over both strains; format: cell-based, Neisseria gonorrhoeae; conditions: compared with imipenem
[13] = IC50 PBP2, strain ATCC 49226, membrane preparation, 30 min drug then Bocillin FL
[14] = IC50 PBP1, strain ATCC 49226, membrane preparation, 30 min drug then Bocillin FL

| Structure (SMILES) | MIC ([1]; read-out: MIC) [µg/mL] | MIC ([1]; read-out: MIC (Table S1)) [µg/mL] | IC50 (PBP1 [2]) [nM] | MIC ([3]; read-out: MIC) [µg/mL] | MIC ([3]; read-out: MIC (Table S1)) [µg/mL] | IC50 (PBP2 [4]; IC50 PBP2 (Table S1), strain ATCC 49226) [nM] | IC50 (PBP1 [5]; IC50 PBP1 (Table S1), strain ATCC 49226) [nM] | IC50 (PBP2 [6]) [nM] | IC50 (PBP1, PBP2 and PBP3 [7]) [nM] | IC50 (PBP3 [8]) [nM] | IC50 (PBP3 [9]) [nM] | IC50 (PBP2 [10]) [nM] | IC50 (PBP2 [4]; [13]) [nM] | IC50 (PBP1, PBP2 and PBP3 [11]) [nM] | IC50 (PBP1 [5]; [14]) [nM] | MIC increase for strain ATCC 49226 [3] [fold] | times more active [12] [times] |
| --- | --- | --- | --- | --- | --- | --- | --- | --- | --- | --- | --- | --- | --- | --- | --- | --- | --- |
| CC1(C)S[C@@H]2[C@H](NC(=O)C(C(=O)O)c3ccccc3)C(=O)N2[C@H]1C(=O)O (some centres unmarked) [CAR, carbenicillin] | 0.032 (≈ 0.0846 µM) | 0.032 (≈ 0.0846 µM) | > 5290 | 0.5 (≈ 1.32 µM) | 0.5 (≈ 1.32 µM) | > 5290 | > 5290 | 344 | 344 |  |  |  |  |  |  |  |  |
| CC(C)(O/N=C(\C(=O)N[C@@H]1C(=O)N2C(C(=O)[O-])=C(C[n+]3ccccc3)CS[C@H]12)c1csc(N)n1)C(=O)O [CAZ, ceftazidime] | 0.016 (≈ 0.0293 µM) | 0.016 (≈ 0.0293 µM) | > 3660 | 0.032 (≈ 0.0585 µM) | 0.032 (≈ 0.0585 µM) |  |  | 18.3 | 18.3 | > 3660 | > 3660 | 18.3 | 18.3 | 18.3 | > 3660 |  |  |
| C=CC1=C(C(=O)O)N2C(=O)[C@@H](NC(=O)/C(=N\OCC(=O)O)c3csc(N)n3)[C@H]2SC1 [CFM, cefixime] | 0.004 (≈ 0.00882 µM) | 0.004 (≈ 0.00882 µM) | 2030 | 0.016 (≈ 0.0353 µM) | 0.016 (≈ 0.0353 µM) |  |  | 22.1 | 22.1 | > 4410 | > 4410 | 22.1 | 44.1 | 44.1 | > 4410 | 4 |  |
| CCO/N=C(\C(=O)N[C@@H]1C(=O)N2C(C(=O)[O-])=C(Sc3nc(-c4cc[n+](C)cc4)cs3)CS[C@H]12)c1nsc(N)n1 [CPT, ceftaroline] | 0.032 (≈ 0.0529 µM) | 0.032 (≈ 0.0529 µM) | > 3310 | 0.5 (≈ 0.827 µM) | 0.5 (≈ 0.827 µM) |  |  | 248 | 248 | 3140 | 2130 |  | 347 | 347 | > 3310 | 16 |  |
| CO/N=C(\C(=O)N[C@@H]1C(=O)N2C(C(=O)O)=C(CSc3nc(=O)c(=O)[nH]n3C)CS[C@H]12)c1csc(N)n1 [CRO, ceftriaxone] | 0.004 (≈ 0.00721 µM) | 0.004 (≈ 0.00721 µM) | 3370 | 0.002 (≈ 0.00361 µM) | 0.008 (≈ 0.0144 µM) |  |  |  |  |  |  |  |  |  | 3430 |  |  |
| CO/N=C(\C(=O)N[C@@H]1C(=O)N2C(C(=O)O)=C(COC(C)=O)CS[C@H]12)c1csc(N)n1 [CTX, cefotaxime] | 0.004 (≈ 0.00878 µM) | 0.004 (≈ 0.00878 µM) | 4060 | 0.008 (≈ 0.0176 µM) | 0.008 (≈ 0.0176 µM) |  |  | 22 | 22 | 3140 | 2240 | 22 | 22 | 22 | > 4390 |  |  |
| C[C@@H](O)[C@H]1C(=O)N2C(C(=O)O)=C(S[C@@H]3CN[C@H](C(=O)Nc4cccc(C(=O)O)c4)C3)[C@H](C)[C@H]12 [ETP, ertapenem] | 0.004 (≈ 0.00841 µM) | 0.004 (≈ 0.00841 µM) | 1010 | 0.008 (≈ 0.0168 µM) | 0.008 (≈ 0.0168 µM) |  |  | 84.1 |  |  |  |  | 21 |  | 1200 |  | 8 |
| CO/N=C(\C(=O)N[C@@H]1C(=O)N2C(C(=O)[O-])=C(C[N+]3(C)CCCC3)CS[C@H]12)c1csc(N)n1 [FEP, cefepime] | 0.008 (≈ 0.0166 µM) | 0.008 (≈ 0.0166 µM) | > 4160 | 0.032 (≈ 0.0666 µM) | 0.032 (≈ 0.0666 µM) |  |  |  |  |  |  |  |  |  | > 4160 |  |  |
